According to publication PMC7539200, “Glufosinate constrains synchronous and metachronous metastasis by promoting anti‐tumor macrophages” (EMBO Molecular Medicine, 2020):
Like-named read-outs stand apart in the source and are kept apart here.

Experiments:
[1] = molecular target: T1, human glutamine synthetase (hGS) (Homo sapiens, UniProt P15104); assay: microtiter phosphate-release GS activity assay, Lineweaver-Burk and secondary plot; IC50 […]; type: biochemical
T1 construct: gene GLUL

[2] = molecular target: T1, human glutamine synthetase (hGS); assay: as above; type: biochemical; remark: listed apart in the source

T1 sequence (P15104 2-373): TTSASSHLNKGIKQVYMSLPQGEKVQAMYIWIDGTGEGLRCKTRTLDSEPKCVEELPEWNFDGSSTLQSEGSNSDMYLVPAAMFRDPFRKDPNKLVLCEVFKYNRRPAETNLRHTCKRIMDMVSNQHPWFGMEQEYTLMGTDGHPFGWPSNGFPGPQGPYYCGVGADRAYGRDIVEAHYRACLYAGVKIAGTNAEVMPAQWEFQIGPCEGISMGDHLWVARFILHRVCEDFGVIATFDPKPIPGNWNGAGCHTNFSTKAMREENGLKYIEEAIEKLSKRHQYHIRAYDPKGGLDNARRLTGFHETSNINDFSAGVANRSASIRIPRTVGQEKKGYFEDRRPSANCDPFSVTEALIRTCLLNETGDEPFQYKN

`CP(=O)(O)CCC(N)C(=O)O` (centres unmarked) [Glufosinate] was tested, and the Ki [1] was roughly 19.5 µM.
Work on `CS(=N)(=O)CCC(N)C(=O)O` (centres unmarked) [Methionine sulfoximine] yielded a Ki [2] of 880 µM.
